Measured values from ChEMBL document CHEMBL1130645, “Synthesis and evaluation of artificial taxoids with antitumor and multi-drug resistance reversing activities” (1998).

Legend:
[1] = Compound was evaluated for vincristine accumulation in ovarian MDR cancer cells (2780AD) at a concentration of 10 ug/mL.; format: functional, Homo sapiens
Homo sapiens = species: Homo sapiens; test: Compound was evaluated for inhibition of tumor cell growth using sulforhodamine-B assay in human BSY-1 cell.; format: functional
[2] = Compound was evaluated for vincristine accumulation in ovarian MDR cancer cells (2780AD) at a concentration of 1.0 ug/mL.; format: functional, Homo sapiens
P388 = test: Compound was evaluated for inhibition of tumor cell growth using sulforhodamine-B assay in mouse […] p338 cell line; format: functional
[3] = Compound was evaluated for inhibition of tumor cell growth using sulforhodamine-B assay in 38 human cell lines; format: functional

SMILES	Control [1] [%]	GI50 (Homo sapiens) [µM]	Control [2] [%]	GI50 (P388) [µM]	GI50 [3] [µM]
CC1=C2[C@@H](Sc3ccccc3)[C@H](OCCO)C3=C([C@H](OCc4ccccc4)[C@](O)(C[C@@H]1OC(=O)[C@H](O)[C@@H](NCc1ccccc1)c1ccccc1)C2(C)C)[C@@](C)(O)CCC3	217	9.5	151	–	–
CC(=O)O[C@@]1(C)CCCC2=C1[C@H](OCc1ccccc1)[C@]1(O)C[C@H](OC(=O)[C@H](O)[C@@H](NCc3ccccc3)c3ccccc3)C(C)=C([C@@H](Sc3ccccc3)[C@@H]2OCCO)C1(C)C	102	–	80	10	10
